Reference: ChEMBL document CHEMBL1201862, “PubChem BioAssay data set” (2004)
Activity calls are given as the source filed them.

Assays:
[1] = target: T1, Coagulation factor XII (Homo sapiens, UniProt P00748); assay: FXIIa inhibitor potency, concentration-response, biochemical (AID 716); type: functional
T1 sequence (P00748 whole entry): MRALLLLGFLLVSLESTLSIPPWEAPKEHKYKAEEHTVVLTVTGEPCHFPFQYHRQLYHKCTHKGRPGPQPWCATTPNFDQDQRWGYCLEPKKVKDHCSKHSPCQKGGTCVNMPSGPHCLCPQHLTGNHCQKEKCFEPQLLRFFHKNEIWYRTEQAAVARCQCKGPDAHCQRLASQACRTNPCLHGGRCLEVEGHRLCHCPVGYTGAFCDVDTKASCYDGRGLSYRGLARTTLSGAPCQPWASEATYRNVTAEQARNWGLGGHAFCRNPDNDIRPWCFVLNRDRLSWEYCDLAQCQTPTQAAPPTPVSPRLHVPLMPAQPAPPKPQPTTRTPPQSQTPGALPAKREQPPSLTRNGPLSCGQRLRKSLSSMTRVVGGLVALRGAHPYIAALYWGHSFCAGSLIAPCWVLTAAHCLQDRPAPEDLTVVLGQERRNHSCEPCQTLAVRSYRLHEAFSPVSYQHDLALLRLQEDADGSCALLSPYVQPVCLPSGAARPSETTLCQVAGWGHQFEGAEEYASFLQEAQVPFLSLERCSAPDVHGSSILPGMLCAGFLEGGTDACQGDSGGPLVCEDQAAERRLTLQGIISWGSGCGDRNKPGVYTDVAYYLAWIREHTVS

[2] = cells
[3] = test system: HEK293; assay: cells; type: functional, cell-based; conditions: Homo sapiens
[4] = test system: HEK293; assay: NOD1 signaling inhibitors, primary screen, cell-based, luminescence, uHTS (AID 1578); type: functional; conditions: Homo sapiens
[5] = target: Nucleotide-binding oligomerization domain-containing protein 2 (Homo sapiens, UniProt Q9HC29); assay: NOD2 signaling inhibitors, cell-based, luminescence, uHTS, HEK293 (AID 1566); type: functional
[6] = test system: HEK293; assay: NOD2 signaling inhibitors in MDP-stimulated cells, cell-based, uHTS, luminescence (AID 2001); type: functional; conditions: Homo sapiens
[7] = test system: HEK293; assay: cells; type: functional, cell-based; conditions: Homo sapiens; remark: listed apart in the source
[8] = test system: HEK293; assay: cells; type: functional, cell-based; conditions: Homo sapiens; remark: listed apart in the source
[9] = target: Major prion protein (Homo sapiens, UniProt P04156); type: functional, cell-based
[10] = target: T2, G-protein coupled receptor 35 (Homo sapiens, UniProt Q9HC97); assay: SAR analysis of Agonists of the GPR35 Receptor using an Image-Based Assay - Set 3. [Related pubchem assays (depositor defined):AID1961, AID1965]; type: functional
[11] = target: T3, Cannabinoid receptor 1 (Homo sapiens, UniProt P21554); assay: SAR analysis of antagonists of the Cannabinoid Receptor 1 using an Image-Based Assay - Set 3. [Related pubchem assays (depositor defined):AID1961, AID1965]; type: functional
[12] = target: G-protein coupled receptor 55 (Homo sapiens, UniProt Q9Y2T6); assay: SAR analysis of selective Agonists of GPR55 using an Image-Based Assay - Set 2. [Related pubchem assays (depositor defined):AID1961, AID1965]; type: functional
[13] = target: T4, Cannabinoid receptor 2 (Homo sapiens, UniProt P34972); assay: SAR analysis of agonists of the Cannabinoid Receptor 2 using an Image-Based Assay - Set 2. [Related pubchem assays (depositor defined):AID1961, AID1965]; type: functional
[14] = target: T3, Cannabinoid receptor 1; assay: SAR analysis of agonists of the Cannabinoid Receptor 1 using an Image-Based Assay - Set 3. [Related pubchem assays (depositor defined):AID1961, AID1965]; type: functional
[15] = target: T2, G-protein coupled receptor 35; assay: SAR analysis of Antagonists of the GPR35 Receptor using an Image-Based Assay - Set 4. [Related pubchem assays (depositor defined):[…]]; type: functional
[16] = target: T4, Cannabinoid receptor 2; assay: SAR analysis of antagonists of the Cannabinoid Receptor 2 using an Image-Based Assay - Set 2. [Related pubchem assays (depositor defined):AID1961, AID1965]; type: functional
[17] = Vero E6 cell cytotoxicity, dose response, cytotoxicity control for non-replicating M. tuberculosis project, secondary assay (AID 492998); type: functional, VeroE6; conditions: Vero C1008
[18] = test system: INS1; assay: beta cell apoptosis inhibitors, cytokine rescue, dose response, luminescence, retest (AID 449756); type: functional, cell-based; conditions: Rattus norvegicus;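 also: cell death triggered by IL-1 beta plus TNF-alpha plus IFN-gamma mixture; protective hits raise ATP signal compared with cytokine alone wells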
[19] = THP-1 cell cytotoxicity, dose response, cytotoxicity control for non-replicating M. tuberculosis project (AID 489025); type: functional
[20] = growth suppression of beta-catenin-knockout colon cells, dose response, cell-based, HCT116, human colon tumor (AID 1045); type: functional;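 also: HCT116 colon tumor cells with beta catenin knocked out; cells exposed to compound for 60 hours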
[21] = target: T5, Sentrin-specific protease 6 (Homo sapiens, UniProt Q9GZR1); type: functional;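 also: Luminescence-based dose-response confirmatory assay of SENP6 inhibition, following up an ultra-high-throughput screen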
T5 sequence (Q9GZR1 whole entry): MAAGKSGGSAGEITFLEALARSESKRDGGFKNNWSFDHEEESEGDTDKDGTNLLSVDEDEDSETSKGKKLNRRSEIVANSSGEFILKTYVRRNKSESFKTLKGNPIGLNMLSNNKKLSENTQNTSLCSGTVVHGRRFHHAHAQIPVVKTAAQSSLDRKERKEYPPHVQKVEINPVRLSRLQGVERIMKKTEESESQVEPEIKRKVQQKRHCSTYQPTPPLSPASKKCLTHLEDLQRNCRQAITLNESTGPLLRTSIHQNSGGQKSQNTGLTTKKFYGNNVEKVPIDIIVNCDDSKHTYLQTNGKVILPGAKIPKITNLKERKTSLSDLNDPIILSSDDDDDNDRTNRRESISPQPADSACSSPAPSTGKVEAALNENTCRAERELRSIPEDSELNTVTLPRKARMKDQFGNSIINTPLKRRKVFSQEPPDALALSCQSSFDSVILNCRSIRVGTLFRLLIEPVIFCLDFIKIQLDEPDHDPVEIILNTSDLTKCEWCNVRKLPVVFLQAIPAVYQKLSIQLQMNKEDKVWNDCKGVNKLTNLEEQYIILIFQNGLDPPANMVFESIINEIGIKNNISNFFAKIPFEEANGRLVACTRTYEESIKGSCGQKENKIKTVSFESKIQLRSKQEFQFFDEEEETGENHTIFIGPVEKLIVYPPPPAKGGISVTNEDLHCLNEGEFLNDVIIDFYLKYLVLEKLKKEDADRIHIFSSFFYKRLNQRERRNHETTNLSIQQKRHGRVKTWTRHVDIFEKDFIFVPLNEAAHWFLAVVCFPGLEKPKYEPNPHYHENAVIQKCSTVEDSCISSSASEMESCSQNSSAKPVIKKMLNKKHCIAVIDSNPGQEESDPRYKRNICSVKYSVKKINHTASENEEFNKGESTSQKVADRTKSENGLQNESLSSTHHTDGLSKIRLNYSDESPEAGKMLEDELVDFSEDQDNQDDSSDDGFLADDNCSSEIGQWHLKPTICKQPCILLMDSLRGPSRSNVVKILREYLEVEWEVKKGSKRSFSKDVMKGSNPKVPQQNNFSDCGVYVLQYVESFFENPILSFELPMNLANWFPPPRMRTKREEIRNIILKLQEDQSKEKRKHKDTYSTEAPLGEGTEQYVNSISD

[22] = target: Photoreceptor-specific nuclear receptor (Homo sapiens, UniProt Q9Y5X4); type: functional, cell-based;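 also: CHO-S cells with Gal4-NCOR and VP16-NR2E3 two-hybrid luciferase reporter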
[23] = target: T6, Sentrin-specific protease 7 (Homo sapiens, UniProt Q9BQF6); type: functional;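 also: Luminescence-based dose-response confirmation of ultra-high-throughput screening hits, measuring inhibition of SENP7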
T6 sequence (Q9BQF6 whole entry): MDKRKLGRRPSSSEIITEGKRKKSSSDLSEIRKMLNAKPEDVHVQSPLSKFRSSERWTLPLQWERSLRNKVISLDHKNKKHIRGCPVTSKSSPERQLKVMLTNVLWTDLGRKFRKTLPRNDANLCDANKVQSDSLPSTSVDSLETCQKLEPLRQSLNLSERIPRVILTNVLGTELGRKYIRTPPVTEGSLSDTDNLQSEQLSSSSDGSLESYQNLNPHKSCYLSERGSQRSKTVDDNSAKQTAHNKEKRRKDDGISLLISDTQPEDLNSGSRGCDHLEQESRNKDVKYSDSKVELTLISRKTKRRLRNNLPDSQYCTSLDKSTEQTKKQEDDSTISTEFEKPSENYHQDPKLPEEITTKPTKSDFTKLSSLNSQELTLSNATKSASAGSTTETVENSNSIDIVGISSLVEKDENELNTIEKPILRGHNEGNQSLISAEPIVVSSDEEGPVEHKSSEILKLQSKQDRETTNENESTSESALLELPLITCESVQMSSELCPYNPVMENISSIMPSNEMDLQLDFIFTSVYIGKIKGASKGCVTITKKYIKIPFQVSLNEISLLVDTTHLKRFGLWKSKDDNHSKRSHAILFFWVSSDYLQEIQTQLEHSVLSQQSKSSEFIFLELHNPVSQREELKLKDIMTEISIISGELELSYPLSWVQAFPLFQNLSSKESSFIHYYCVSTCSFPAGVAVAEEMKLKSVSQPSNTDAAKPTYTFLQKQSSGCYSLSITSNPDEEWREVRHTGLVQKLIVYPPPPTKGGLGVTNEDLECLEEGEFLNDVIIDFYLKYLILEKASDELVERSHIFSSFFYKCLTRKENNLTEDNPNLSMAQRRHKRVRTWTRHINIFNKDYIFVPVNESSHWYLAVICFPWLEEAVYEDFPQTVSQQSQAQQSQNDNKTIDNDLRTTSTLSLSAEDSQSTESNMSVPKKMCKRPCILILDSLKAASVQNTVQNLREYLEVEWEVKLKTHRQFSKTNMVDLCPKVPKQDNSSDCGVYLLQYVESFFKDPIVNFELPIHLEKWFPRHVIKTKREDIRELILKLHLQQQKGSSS

[24] = target: T7, Caspase-3 (Homo sapiens, UniProt P42574); type: functional;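 also: Dose-response selectivity test against caspase-3 for candidate inhibitors of sentrin-specific proteases (SENPs)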
T7 sequence (P42574 whole entry): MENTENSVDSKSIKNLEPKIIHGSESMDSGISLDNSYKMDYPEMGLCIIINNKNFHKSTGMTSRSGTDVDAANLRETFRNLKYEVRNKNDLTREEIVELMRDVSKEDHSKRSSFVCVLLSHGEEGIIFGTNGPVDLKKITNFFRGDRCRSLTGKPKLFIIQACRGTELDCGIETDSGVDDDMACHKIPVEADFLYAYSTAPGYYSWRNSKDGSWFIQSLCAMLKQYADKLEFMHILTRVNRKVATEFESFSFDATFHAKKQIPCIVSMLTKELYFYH

[25] = growth suppression of PTEN-null colon cells, dose response, cell-based, HCT116 PTEN knockout (AID 1047); type: functional;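 also: HCT116 colon tumor cells with PTEN knocked out; cells exposed to compound for 60 hours before readout; potency for loss of cell viability measured by luminescence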
[26] = HepG2 cell cytotoxicity, dose response, cytotoxicity control for non-replicating M. tuberculosis project (AID 489018); type: functional; conditions: Mycobacterium tuberculosis
[27] = target: T8, Sentrin-specific protease 8 (Homo sapiens, UniProt Q96LD8); type: functional;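 also: luminescence read-out of SENP8 inhibition, dose-response confirmation following an ultra-high-throughput screen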
T8 sequence (Q96LD8 whole entry): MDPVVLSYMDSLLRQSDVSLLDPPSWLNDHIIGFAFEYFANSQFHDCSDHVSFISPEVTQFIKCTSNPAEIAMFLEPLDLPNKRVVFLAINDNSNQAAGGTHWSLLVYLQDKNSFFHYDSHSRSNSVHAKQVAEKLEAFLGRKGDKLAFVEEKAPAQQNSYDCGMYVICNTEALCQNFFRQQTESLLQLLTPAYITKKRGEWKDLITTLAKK

CC(C)CCn1c(=S)[nH]c2ncccc2c1=O
inactive: IC50 [1] > 50 µM

Cc1nc2c(Br)cc(Br)cc2cc1O
inactive: IC50 [2] > 138 µM | IC50 [3] > 20 µM | IC50 [7] > 20 µM
active: EC50 [4] 11.4 µM | EC50 [5] 13.2 µM | IC50 [6] 6.68 µM | IC50 [8] 6.3 µM | IC50 [9] 1.36 µM

COc1ccc(S(=O)(=O)N2CCOCC2)cc1NC(=O)c1ccc2c(c1)OCO2
inactive: EC50 [10] > 32 µM | IC50 [11] > 32 µM | EC50 [12] 18 µM | EC50 [13] > 32 µM | EC50 [14] > 32 µM | IC50 [15] > 32 µM | IC50 [16] > 32 µM

COc1ccccc1-n1c(=O)oc2ccc(Cl)cc2c1=O
active: CC50 [17] > 20 µM | AC50 [18] 8.62 µM | CC50 [19] 19.8 µM | EC50 [20] 11.9 µM | IC50 [21] 16.5 µM | IC50 [22] 5.1 µM | IC50 [23] 11.5 µM | IC50 [24] 26.9 µM | EC50 [25] 11.7 µM | CC50 [26] > 20 µM | IC50 [27] 22.6 µM
